Data published in article PMC6497071 (Bioorganic & medicinal chemistry letters, 2018).
Read-outs that look alike come from different tables or passages of the source.

Tests used:
tubulin = tubulin polymerization cell-based immunoblot assay; details: immunoblot of pellet and supernatant
MV4-11 leukemia cells = assay: MV4-11 leukemia cell viability; assay type: cell-based, human
[1] = system: panel of 60 human tumor cell lines; assay: NCI-60 five dose assay, whole panel summary; assay type: cell-based
A498 = A498 (Renal Cancer), five dose; cited from earlier work
K-562 = K-562 (Leukemia), five dose; cited from earlier work
SK-MEL-28 = SK-MEL-28 (Melanoma), five dose; cited from earlier work
HS 578T = HS 578T (Breast Cancer), five dose; cited from earlier work
LOX IMVI = LOX IMVI (Melanoma), five dose; cited from earlier work
CCRF-CEM = CCRF-CEM (Leukemia), five dose; cited from earlier work
SF-295 = SF-295 (CNS Cancer), five dose; cited from earlier work
OVCAR-4 = OVCAR-4 (Ovarian Cancer), five dose; cited from earlier work
NCI-H23 = NCI-H23 (Lung Cancer), five dose; cited from earlier work
SF-268 = SF-268 (CNS Cancer), five dose; cited from earlier work
SR = SR (Leukemia), five dose; cited from earlier work
MDA-MB-468 = MDA-MB-468 (Breast Cancer), five dose; cited from earlier work
NCI/ADR-RES = NCI/ADR-RES (Ovarian Cancer), five dose; cited from earlier work
[2] = system: panel of 60 human tumor cell lines; details: against 87% of the cancer cell lines; cited from earlier work
HL-60(TB) = HL-60(TB) (Leukemia), five dose; cited from earlier work
HOP-92 = HOP-92 (Lung Cancer), five dose; cited from earlier work
ACHN = ACHN (Renal Cancer), five dose; cited from earlier work
M14 = M14 (Melanoma), five dose; cited from earlier work
786-0 = 786-0 (Renal Cancer), five dose; cited from earlier work
SK-MEL-5 = SK-MEL-5 (Melanoma), five dose; cited from earlier work
MDA-MB-231/ATCC = MDA-MB-231/ATCC (Breast Cancer), five dose; cited from earlier work
MOLT-4 = MOLT-4 (Leukemia), five dose; cited from earlier work
HCT-15 = HCT-15 (Colon Cancer), five dose; cited from earlier work
SK-OV-3 = SK-OV-3 (Ovarian Cancer), five dose; cited from earlier work
SNB-75 = SNB-75 (CNS Cancer), five dose; cited from earlier work
SW-620 = SW-620 (Colon Cancer), five dose; cited from earlier work
HOP-62 = HOP-62 (Lung Cancer), five dose; cited from earlier work
MCF7 = MCF7 (Breast Cancer), five dose; cited from earlier work
SK-MEL-2 = SK-MEL-2 (Melanoma), five dose; cited from earlier work
SNB-19 = SNB-19 (CNS Cancer), five dose; cited from earlier work
OVCAR-3 = OVCAR-3 (Ovarian Cancer), five dose; cited from earlier work
HCC-2998 = HCC-2998 (Colon Cancer), five dose; cited from earlier work
SF-539 = SF-539 (CNS Cancer), five dose; cited from earlier work
UACC-62 = UACC-62 (Melanoma), five dose; cited from earlier work
HT29 = HT29 (Colon Cancer), five dose; cited from earlier work
MDA-MB-435 = MDA-MB-435 (Melanoma), five dose; cited from earlier work
IGROV1 = IGROV1 (Ovarian Cancer), five dose; cited from earlier work
KM12 = KM12 (Colon Cancer), five dose; cited from earlier work
CAKI-1 = CAKI-1 (Renal Cancer), five dose; cited from earlier work
NCI-H522 = NCI-H522 (Lung Cancer), five dose; cited from earlier work
A549/ATCC = A549/ATCC (Lung Cancer), five dose; cited from earlier work
U251 = U251 (CNS Cancer), five dose; cited from earlier work
HCT-116 = HCT-116 (Colon Cancer), five dose; cited from earlier work
RPMI-8226 = RPMI-8226 (Leukemia), five dose; cited from earlier work
COLO 205 = COLO 205 (Colon Cancer), five dose; cited from earlier work
UO-31 = UO-31 (Renal Cancer), five dose; cited from earlier work

In the case of `COc1ccc(/C=C(/c2ccc([N+](=O)[O-])cc2)c2nnn[nH]2)c2ccccc12` [Compound 10a, (Z)-5-(2-(4-Methoxynaphthalen-1-yl)-1-(4-nitrophenyl)vinyl)-1H-tetrazole], the “inhibition of tubulin polymerization” value (tubulin; 1.0 μM and 2.0 μM) is reported as “inhibited tubulin polymerization”, the “inhibition of tubulin polymerization” value (tubulin; 2.0 μM) is reported as “Significant inhibition” and the “LD50 (24h)” value (MV4-11 leukemia cells) is reported as 1.46 µM. For the same compound, the “LD50 (48h)” value (MV4-11 leukemia cells) was 1.39 µM.
In the case of `COc1ccc(/C(=C/c2ccc3ccccc3c2)c2nnn[nH]2)cc1OC` [Compound 10b, (Z)-5-(1-(3,4-Dimethoxyphenyl)-2-(naphthalen-2-yl)vinyl)-1H-tetrazole], the “inhibition of tubulin polymerization” value (tubulin; 1.0 μM and 2.0 μM) is reported as “inhibited tubulin polymerization”, the “inhibition of tubulin polymerization” value (tubulin; 2.0 μM) is reported as “significantly less active” and the “LD50 (24h)” value (MV4-11 leukemia cells) is reported as 1.08 µM. The “LD50 (48h)” value (MV4-11 leukemia cells) was 1.01 µM, the GI50 ([1]; against more than 30% of the human cancer cell lines) was under 2500 nM and the GI50 ([1]; against only 15% of the cell lines in the panel) was under 2000 nM.
In the case of `COc1ccc(/C=C(/c2cc(OC)c(OC)c(OC)c2)c2nnn[nH]2)cc1` [Compound 8g, (Z)-5-(2-(4-Methoxyphenyl)-1-(3,4,5-trimethoxyphenyl)vinyl)-1H-tetrazole], the “inhibition of tubulin polymerization” value (tubulin; 1.0 μM and 2.0 μM) is reported as “inhibited tubulin polymerization”, the “inhibition of tubulin polymerization” value (tubulin; 2.0 μM) is reported as “Significant inhibition” and the “LD50 (24h)” value (MV4-11 leukemia cells) is reported as 4.60 µM. For the same compound, the “LD50 (48h)” value (MV4-11 leukemia cells) was 4.29 µM and the “fold less effective when compared with 8h” value (MV4-11 leukemia cells; LD50 ratio) was about 170 fold.
For `COc1ccc(/C=C(/c2cc(OC)c(OC)c(OC)c2)c2nnn[nH]2)cc1O` [Compound 8h, (Z)-5-(2-(1H-Tetrazol-5-yl)-2-(3,4,5-trimethoxyphenyl)vinyl)-2-methoxyphenol], the “inhibition of tubulin polymerization” value (tubulin; 1.0 μM and 2.0 μM) was “inhibited tubulin polymerization”, the “inhibition of tubulin polymerization” value (tubulin; 2.0 μM) was “Significant inhibition” and the “LD50 (24h)” value (MV4-11 leukemia cells) was 0.03 µM. For the same compound, the “LD50 (48h)” value (MV4-11 leukemia cells) was 0.02 µM, the LD50 (MV4-11 leukemia cells; time not stated in text (equals 24h value of Table 4)) was 30 nM and the LD50 (MV4-11 leukemia cells; time not stated in text (equals 48h value of Table 4)) was 20 nM. It also gave a GI50 ([1]; 60 cell) of under 10 nM.
In the case of `COc1ccc(/C=C(\C#N)c2cc(OC)c(OC)c(OC)c2)cc1O` [Compound 5], the GI50 (A498) is given as under 10 nM, the GI50 (K-562) is given as under 10 nM and the GI50 (SK-MEL-28) is given as 1010 nM. The GI50 (HS 578T) was under 10 nM, the GI50 (LOX IMVI) was under 10 nM and the GI50 (CCRF-CEM) was under 10 nM. The GI50 (SF-295) was 50 nM, the GI50 (OVCAR-4) was under 10 nM and the GI50 (NCI-H23) was under 10 nM. The GI50 (SF-268) was under 10 nM, the GI50 (SR) was under 10 nM and the GI50 (MDA-MB-468) was under 10 nM. For the same compound, the GI50 (NCI/ADR-RES) was under 10 nM, the GI50 [2] was under 10 nM and the GI50 (HL-60(TB)) was under 10 nM. The GI50 (HOP-92) was under 10 nM, the GI50 (ACHN) was under 10 nM and the GI50 (M14) was under 10 nM. For the same compound, the GI50 (786-0) was under 10 nM, the GI50 (SK-MEL-5) was under 10 nM and the GI50 (MDA-MB-231/ATCC) was under 10 nM. The “LD50 (48h)” value (MV4-11 leukemia cells) was 0.04 µM, the GI50 (MOLT-4) was under 10 nM and the GI50 (HCT-15) was under 10 nM. For the same compound, the GI50 (SK-OV-3) was 10 nM, the GI50 (SNB-75) was under 10 nM and the GI50 (SW-620) was under 10 nM. For the same compound, the GI50 (HOP-62) was under 10 nM, the GI50 (MCF7) was under 10 nM and the GI50 (SK-MEL-2) was under 10 nM. For the same compound, the GI50 (SNB-19) was under 10 nM, the GI50 (OVCAR-3) was under 10 nM and the GI50 (HCC-2998) was 20 nM. For the same compound, the GI50 (SF-539) was under 10 nM, the GI50 (UACC-62) was under 10 nM and the GI50 (HT29) was 3180 nM. For the same compound, the GI50 (MDA-MB-435) was under 10 nM, the GI50 (IGROV1) was under 10 nM and the GI50 (KM12) was under 10 nM. The GI50 (CAKI-1) was 30 nM, the GI50 (NCI-H522) was under 10 nM and the GI50 (A549/ATCC) was under 10 nM. The GI50 (U251) was 10 nM, the GI50 (HCT-116) was under 10 nM and the GI50 (RPMI-8226) was under 10 nM. For the same compound, the GI50 (COLO 205) was 2990 nM and the GI50 (UO-31) was under 10 nM.
In the case of `COc1ccccc1/C=C(/c1cc(Br)cc(Br)c1)c1nnn[nH]1` [Compound 8c, (Z)-5-(1-(3,5-Dibromophenyl)-2-(2-methoxyphenyl)vinyl)-1H-tetrazole], the “LD50 (24h)” value (MV4-11 leukemia cells) is reported as 28.8 µM and the “LD50 (48h)” value (MV4-11 leukemia cells) is reported as 28.6 µM.
